Experimental data as given in patent US12090143B1, “4-chloro-N′-(2-(5-phenyl-1,3,4-oxadiazol-2-ylthio)acetoxy)benzimidamide as an antimicrobial compound” (KING FAISAL UNIVERSITY, priority 2023, dated 2024).

Experiments:
Assay type in all cases: cell-based
Bacillus cereus = assay: Agar plate disc-diffusion, antibacterial, Bacillus cereus; settings: nutrient agar, 37° C., 48 hours, DMSO zone subtracted
Procedure: (§1) The agar plate disc-diffusion method was applied. […] The discs were then placed onto the surface of agar plates (nutrient agar for bacteria and Sabouraud's dextrose agar for fungi) seeded with the test organism. Each plate contained 15 mL of the agar medium, previously seeded with 0.2 mL of the broth culture of each organism pregrown for 18 hours. The plates were incubated at 37° C. for 48 hours, and 72 hours for fungi. The inhibition zones was measured in mm. Discs impregnated with DMSO were used as a control, and its inhibition zone was subtracted from the tested compound actual inhibition zone.

Staphylococcus aureus = assay: Agar plate disc-diffusion, antibacterial, Staphylococcus aureus; settings: nutrient agar, 37° C., 48 hours, DMSO zone subtracted
Procedure: as §1

Pseudomonas aeruginosa = assay: Agar plate disc-diffusion, antibacterial, Pseudomonas aeruginosa; settings: nutrient agar, 37° C., 48 hours, DMSO zone subtracted
Procedure: as §1

Escherichia coli = assay: Agar plate disc-diffusion, antibacterial, Escherichia coli; settings: nutrient agar, 37° C., 48 hours, DMSO zone subtracted
Procedure: as §1

Aspergillus flavus = assay: Agar plate disc-diffusion, antifungal, Aspergillus flavus; settings: Sabouraud's dextrose agar, 37° C., 72 hours, DMSO zone subtracted
Procedure: as §1

[1] = test system: Chrysosporium keratinophilum; assay: Agar plate disc-diffusion, antifungal, Chrysosporium keratinophilum; settings: Sabouraud's dextrose agar, 37° C., 72 hours, DMSO zone subtracted
Procedure: as §1

[2] = A = concentration of comp. = 10,000 μL
[3] = B = concentration of comp. = 30,000 μL
[4] = C = concentration of comp. = 50,000 μL

For `N/C(=N\OC(=O)CSc1nnc(-c2ccccc2)o1)c1ccc(Cl)cc1` [Compound 3, 4-chloro-N′-(2-(5-phenyl-1,3,4-oxadiazol-2-ylthio)acetoxy)benzimidamide], the “inhibition zone, Bacillus Cereus, A” value (Bacillus cereus; [2]) was 26 mm, the “inhibition zone, Bacillus Cereus, B” value (Bacillus cereus; [3]) was 29 mm and the “inhibition zone, Bacillus Cereus, C” value (Bacillus cereus; [4]) was 39 mm. For the same compound, the “inhibition zone, Staphylococcus aureus, A” value (Staphylococcus aureus; [2]) was 25 mm, the “inhibition zone, Staphylococcus aureus, B” value (Staphylococcus aureus; [3]) was 27 mm and the “inhibition zone, Staphylococcus aureus, C” value (Staphylococcus aureus; [4]) was 39 mm. For the same compound, the “inhibition zone, Pseudomonas aeruginosa, A” value (Pseudomonas aeruginosa; A =) was 20 mm, the “inhibition zone, Pseudomonas aeruginosa, B” value (Pseudomonas aeruginosa; [3]) was 26 mm and the “inhibition zone, Pseudomonas aeruginosa, C” value (Pseudomonas aeruginosa; [4]) was 40 mm. The “inhibition zone, Escherichia coli, A” value (Escherichia coli; A =) was 28 mm, the “inhibition zone, Escherichia coli, B” value (Escherichia coli; [3]) was 36 mm and the “inhibition zone, Escherichia coli, C” value (Escherichia coli; [4]) was 53 mm. The “inhibition zone, Aspergillus flavus, A” value (Aspergillus flavus; [2]) was 23 mm, the “inhibition zone, Aspergillus flavus, B” value (Aspergillus flavus; [3]) was 27 mm and the “inhibition zone, Aspergillus flavus, C” value (Aspergillus flavus; [4]) was 39 mm. For the same compound, the “inhibition zone, Chrysosporium keratinophilum, A” value [1, 2] was 35 mm, the “inhibition zone, Chrysosporium keratinophilum, B” value [1, 3] was 26 mm and the “inhibition zone, Chrysosporium keratinophilum, C” value [1, 4] was 42 mm.
